Columns and labels:
[1] = biological target: T1, complex I (CI), NADH-binding site (Bos taurus, UniProt P25708); assay: NADH:APAD+ oxidoreduction, absorbance; type: biochemical; conditions: 500 µM APAD+, 100 µM NADH, 500 nM piericidin A; pH 7.5, 32 °C
T1 construct: gene NDUFV1; native 45-subunit complex from heart mitochondria, purified in LMNG, in proteoliposomes; with NADH dehydrogenase [ubiquinone] flavoprotein 2, mitochondrial; NADH-ubiquinone oxidoreductase 75 kDa subunit, mitochondrial; NADH dehydrogenase [ubiquinone] iron-sulfur protein 2, mitochondrial; NADH dehydrogenase [ubiquinone] iron-sulfur protein 7, mitochondrial

[2] = biological target: T1, complex I (CI), NADH-binding site; assay: NADH oxidation by CI-PLs with AOX, absorbance; type: biochemical; conditions: 200 µM NADH, ubiquinone-10, AOX; pH 7.5, 32 °C
[3] = biological target: T2, complex I (CI), ubiquinone-10-binding site (Bos taurus, UniProt P03887+P17694+P42026); assay: cryoEM structure in proteoliposomes; conditions: CI-out-closed state, 2.5 Å; native substrate, deep-bound
T2 construct: gene NDUFS2; native 45-subunit complex from heart mitochondria, purified in LMNG, reconstituted in proteoliposomes (CI-PLs); natural variant NDUFS2-129 modelled as Arg; with NADH-ubiquinone oxidoreductase chain 3; NADH-ubiquinone oxidoreductase chain 6; NADH dehydrogenase [ubiquinone]; 1 alpha subcomplex subunit 9, mitochondrial
T2 sequence (P17694 34-463): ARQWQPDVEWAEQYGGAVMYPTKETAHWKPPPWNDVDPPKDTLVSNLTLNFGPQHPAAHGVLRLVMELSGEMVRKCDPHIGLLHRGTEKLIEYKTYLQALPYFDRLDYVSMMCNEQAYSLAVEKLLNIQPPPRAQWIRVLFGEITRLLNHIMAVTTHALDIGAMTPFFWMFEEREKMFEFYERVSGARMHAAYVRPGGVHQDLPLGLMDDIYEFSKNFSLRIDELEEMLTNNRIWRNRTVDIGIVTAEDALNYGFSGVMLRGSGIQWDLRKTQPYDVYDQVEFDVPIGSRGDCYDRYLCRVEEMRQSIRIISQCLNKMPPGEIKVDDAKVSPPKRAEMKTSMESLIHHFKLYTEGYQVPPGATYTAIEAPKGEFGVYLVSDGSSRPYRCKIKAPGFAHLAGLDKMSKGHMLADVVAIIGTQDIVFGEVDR
T2 sequence (P03887 whole entry): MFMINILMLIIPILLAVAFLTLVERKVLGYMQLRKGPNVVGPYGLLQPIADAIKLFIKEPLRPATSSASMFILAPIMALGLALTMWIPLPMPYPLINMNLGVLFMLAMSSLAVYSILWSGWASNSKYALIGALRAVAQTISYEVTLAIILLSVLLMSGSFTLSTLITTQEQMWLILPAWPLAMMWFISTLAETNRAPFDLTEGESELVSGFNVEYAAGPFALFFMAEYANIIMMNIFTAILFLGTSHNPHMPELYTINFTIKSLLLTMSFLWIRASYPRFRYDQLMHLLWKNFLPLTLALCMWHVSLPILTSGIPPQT
T2 sequence (P42026 38-216): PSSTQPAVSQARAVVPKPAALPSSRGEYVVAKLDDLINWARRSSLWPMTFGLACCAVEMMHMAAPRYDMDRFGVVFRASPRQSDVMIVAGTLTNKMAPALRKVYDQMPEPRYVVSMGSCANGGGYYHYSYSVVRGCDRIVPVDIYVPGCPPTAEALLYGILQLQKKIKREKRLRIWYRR

T1 sequence (P25708 21-464, one chain of several): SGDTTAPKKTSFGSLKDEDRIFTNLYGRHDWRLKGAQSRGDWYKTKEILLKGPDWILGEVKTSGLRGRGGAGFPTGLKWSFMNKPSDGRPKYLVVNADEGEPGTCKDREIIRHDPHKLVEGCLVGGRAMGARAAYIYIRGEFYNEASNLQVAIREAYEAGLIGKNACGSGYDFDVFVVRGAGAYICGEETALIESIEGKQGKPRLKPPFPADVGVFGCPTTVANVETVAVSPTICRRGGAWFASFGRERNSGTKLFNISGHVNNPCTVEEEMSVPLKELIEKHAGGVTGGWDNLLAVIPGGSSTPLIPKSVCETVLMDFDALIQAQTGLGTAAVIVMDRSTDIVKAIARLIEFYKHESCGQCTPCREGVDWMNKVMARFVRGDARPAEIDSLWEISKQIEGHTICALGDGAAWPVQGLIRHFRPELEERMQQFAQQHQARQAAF

CC(=O)c1ccc[n+]([C@@H]2O[C@H](COP(=O)([O-])OP(=O)(O)OC[C@H]3O[C@@H](n4cnc5c(N)ncnc54)[C@H](O)[C@@H]3O)[C@@H](O)[C@H]2O)c1 [APAD^+]
NADH:APAD+ oxidoreduction, absorbance [1]: Complex I concentration in CI-PLs was determined using the NADH:APAD^+ oxidoreduction reaction

NC(=O)C1=CN([C@@H]2O[C@H](COP(=O)(O)OP(=O)(O)OC[C@H]3O[C@@H](n4cnc5c(N)ncnc54)[C@H](O)[C@@H]3O)[C@@H](O)[C@H]2O)C=CC1 [NADH]
NADH oxidation by CI-PLs with AOX, absorbance [2]: NADH:O2 oxidoreduction rates were measured as the rates of NADH oxidation

COC1=C(OC)C(=O)C(C/C=C(\C)CC/C=C(\C)CC/C=C(\C)CC/C=C(\C)CC/C=C(\C)CC/C=C(\C)CC/C=C(\C)CC/C=C(\C)CC/C=C(\C)CCC=C(C)C)=C(C)C1=O [ubiquinone-10]
cryoEM structure in proteoliposomes [3]: The CI-in/out-closed structures exhibit well-ordered density for ubiquinone-10, inserted fully into its active site

From publication doi:10.1101/2023.12.14.571638v1, “Structural basis of a regulatory switch in mammalian complex I” (biorxiv, 2023)
